Test results as given in patent US20260158149A1, “GLYCOSYLATED PRODRUGS” (UNIVERSITEIT LEIDEN, priority 2021, published 2026).
“Also recorded” adds a separate entry of the source. Each block holds one compound with its values, some of them ahead of it.

Legend:
[1] = system: neutrophils migrated to the wounded area; assay: Tail fin amputation assay: neutrophil migration to the wounded area; assay type: in vivo, Zebrafish (Danio rerio); conditions: for reduction in neutrophil migration in the presence of MZ31: GBA2 inhibitor MZ31; for inhibition of neutrophil migration in Gr deficient larvae: gr mutant line (gr-/-); for reduction in neutrophil migration in the presence of miglustat: non-specific GBA inhibitor miglustat; for neutrophil migration in Gba2-deficient larvae: gba2-/- mutant line
Method: Zebrafish (Danio rerio) were maintained and handled according to the guidelines from the Zebrafish Model Organism Database (https://zfin.org/) and in compliance with the directives of the local animal welfare committee of Leiden University. To maintain circadian rhythmicity, adult fish were exposed to a 14 h light and 10 h dark cycle. Fertilization was performed by natural spawning at the beginning of the light period. Fertilized eggs were collected and raised at 28° C. in egg water (60 μg/ml Instant Ocean sea salts and 0.0025% methylene blue). The following zebrafish lines were used in this study: AB/TL wild type, the transgenic lines Tg(mpx:GFP^i114/mpeg1:mCherry^umsF001) (Bernut et al., (2014). Mycobacterium abscessus cording prevents phagocytosis and promotes abscess formation. Proc Natl Acad Sci USA 111, E943-952; Renshaw et al., (2006). A transgenic zebrafish model of neutrophilic inflammation. Blood 108, 3976-3978), and Tg(9xGCRE-HSV.UI123:EGFP)^ia20 (Benato et al., (2014). A living biosensor model to dynamically trace glucocorticoid transcriptional activity during development and adult life in zebrafish. Mol Cell Endocrinol 392, 60-72), and the mutant lines gba2^−/− (Lelieveld et al., (2019). Role of beta-glucosidase 2 in aberrant glycosphingolipid metabolism: model of glucocerebrosidase deficiency in zebrafish. J Lipid Res 60, 1851-1867) and gr^s357 (Ziv et al., (2013). An affective disorder in zebrafish with mutation of the glucocorticoid receptor. Mol Psychiatry 18, 681-691).
(§1) For the tail fin amputation experiments, 3 days post fertilization (dpf) larvae from the Tg(mpx:GFP^i114/mpeg1:mCherry^umsF001) line were anesthetized in 0.02% buffered aminobenzoic acid ethyl ester (tricaine) in egg water and placed on a 2% agarose-coated petri dish. The tails were partially amputated with a 1 mm sapphire blade (World Precision Instruments) under a Leica M165C stereomicroscope (Leica Microsystems, Wetzlar, Germany). Chemical treatment (or 0.1% DMSO as vehicle treatment) was started at 2 h before the amputation (pretreatment) and was continued for 4 h after the tail fin amputation (20 larvae per group, unless indicated otherwise), at which time point the larvae were fixed in 4% paraformaldehyde (PFA) overnight at 4° C. and stored at 4° C. until further examination. In some experiments, a 24 h treatment with miglustat, ME656 or MZ31 was started at 2 dpf, and these treatments were continued during the pretreatment and treatment with the other chemicals. For imaging of larvae from the Tg(mpx:GFP^i114/mpeg1:mCherry^umsF001) line, a LeicaMZ16FA fluorescence stereomicroscope with LAS 3.7 software was used. Neutrophils were detected by GFP fluorescence and macrophages by mCherry fluorescence. The neutrophil numbers were determined by blinded manual counting in a pre-determined area. When larvae from gba2^−/− or gr^s357mutant lines were used, neutrophil labeling was performed with the TSA fluorescein detection kit (PerkinElmer) for specific staining of Myeloperoxidase (Mpx)-positive cells, following the manufacturer's instructions.

[2] = system: il1b, il6, mmp9, mmp13, il8 mRNA; assay: qPCR of pro-inflammatory genes after tail wounding; assay type: in vivo, Zebrafish (Danio rerio)
From the text: as §1
(§2) For experiments in zebrafish, gene expression was measured using 3 dpf embryos. Groups of 15 larvae were collected in TRIzol reagent (Invitrogen) and mRNA was isolated using the miRNeasy mini kit (Qiagen), according to the manufacturer's instructions. For experiments in HeLa cells, samples were collected from a single well from 6 well plates (80% confluent) in TRIzol reagent and mRNA was isolated using the RNeasy mini kit. Zebrafish and cells samples were treated with DNAse utilizing the DNA-Free™ kit (Ambion). The cDNA synthesis was performed using iScript cDNA synthesis kit (Bio-Rad) using 1 μg of RNA per sample. For qPCR, 10 μM of forward and 10 μM of reverse primer, 12.5 μL of iQ SYBR Green Supermix (Bio-Rad), and 2 μL of cDNA were added to the qPCR reaction mixture. […] The qPCR reactions were performed on a MyiQ-single-color real-time PCR detection system (Bio-Rad) with initial denaturation for 3 min at 95° C. and 40 cycles of 15 s at 95.5° C., 15 s at 60° C., and 30 s at 72° C. Cycle threshold values (Ct values, i.e. the cycle numbers at which a threshold value of the fluorescence intensity was reached) were determined for each sample. The gene expression level for each sample was normalized using the expression of ppial (peptidylprolyl isomerase Ab (cyclophilin A)) for zebrafish samples, and 18S rRNA for human cells. The fold change per sample (compared to the respective control group) was calculated using the ΔΔCt method.

Larval body length = assay type: in vivo, Zebrafish (Danio rerio); conditions: 5 dpf, treatment from 2 hpf
Method: (§3) When the regeneration of the tail fins after wounding or the larval body length was used as a readout, chemical treatments of the embryos were started at 2 hours post fertilization (hpf) and continued until 5 dpf. During this period, solutions were refreshed daily. At 5 dpf, larvae were imaged using a LeicaMZ16FA fluorescence stereomicroscope supported by LAS 3.7 software, and the length of the larvae was measured using ImageJ software (15 larvae per treatment group). For the regeneration experiments, tail fins were amputated at 2 dpf and larvae were imaged at 5 dpf (15 larvae per treatment group). The newly grown tissue can be distinguished from the old tissue, enabling precise measurement of the size of the newly grown tissue using ImageJ software.

regenerated tail fin = assay: Regeneration of the tail fin after wounding; assay type: in vivo, Zebrafish (Danio rerio); conditions: 5 dpf larvae, wounded at 2 dpf; for tissue regeneration with MZ31: GBA2 inhibitor MZ31
Method: as §3

Gr = assay: Transactivation activity of Gr in Tg(9xGCRE-HSV.UI23:EGFP) reporter line; assay type: in vivo, Zebrafish (Danio rerio); conditions: 24 h treatment, 3 dpf larvae
Method: The Tg(9xGCRE-HSV.UI23:EGFP)^ia20 zebrafish reporter line expresses enhanced green fluorescent protein (EGFP) under the control of a promoter containing an array of nine GREs. To study the effect of chemical treatments on the transactivation activity of the Gr, 15 zebrafish embryos per group (2 dpf) were treated with the indicated compounds for 24 hours. The transactivation activity of Gr induced by the treatments was assessed using a LeicaMZ16FA fluorescence stereomicroscope supported by LAS 3.7 software. The integrated intensity of the EGFP signal in the larvae was determined using ImageJ software.

[3] = system: Gr target genes fkbp5, pck1 and nfkbiaa; assay: qPCR of Gr target genes fkbp5, pck1, nfkbiaa; assay type: in vivo, Zebrafish (Danio rerio)
Method: as §2

[4] = Whole-body glucose measurement in larvae; conditions: 5 dpf larvae treated from 2 hpf, non-wounded
Method: Zebrafish embryos at 2 hpf received a chemical treatment, as indicated, with daily refreshment of the solutions, until 5 dpf. At 5 dpf, the larvae were collected in an Eppendorf tube and 100 μL of ice-cold glucose buffer was added to each sample. The larvae were homogenized using a BulletBlender® for 3 min at 8,000 rpm. The homogenates were then centrifuged at 4° C. for 8 min at 11000 rpm and the supernatant was stored at −20° C. Whole-body glucose concentrations were determined using a Glucose Colorimetric Assay kit (Cayman Chemical, USA), according to the manufacturer's instructions. In each experiment, three biological replicates were used for each treatment group, and the colorimetric assay was performed using technical duplicates.

[5] = Whole-body cortisol measurement using ELISA; conditions: for whole body cortisol level: 5 dpf larvae treated from 2 hpf, non-wounded; for whole body cortisol level under wounding conditions / whole body cortisol level under wounding conditions with MZ31: 5 dpf larvae, wounded at 2 dpf; for whole body cortisol level under wounding conditions with MZ31: GBA2 inhibitor MZ31
Method: Zebrafish embryos at 2 hpf received a chemical treatment, as indicated, with daily refreshment of the solutions, until 96 hpf. Then, the treatments were stopped and embryos were incubated in egg water until 5 dpf to avoid cross-reactivity with the compounds of the cortisol antibody used in the ELISA. Then, the treatments were stopped and replaced with egg water. At 5 dpf, the larvae were collected in an Eppendorf tube and 100 μL of ice-cold phosphate-buffered saline (PBS) was added. The larvae were homogenized using a BulletBlender® for 3 min at 8,000 rpm. Ethyl acetate was added to the homogenate and the supernatant was gathered and vaporized. A volume of 150 μl of 0.2% Bovine serum albumin (Sigma Aldrich) dissolved in phosphate-buffered saline (PBS) was added to the samples and frozen. Whole-body cortisol of the zebrafish larvae was determined by ELISA (Demeditec Diagnostics GmbH, Kiel-Wellsee, Germany), following the manufacturer's instructions. In each experiment, three biological replicates were used for each treatment group, and the colorimetric assay was performed using technical duplicates.

IL-6 = assay: CAIA model: serum IL-6 by ELISA; assay type: in vivo, mouse
Method: All mice received 1.5 mg of a CAIA-cocktail (Chondrex) intravenously on day 1, followed by intraperitoneal (i.p.) injection of 50 μg LPS (Chondrex) on day 4. Mice were randomly divided into six groups. […] Scores were assigned blinded. […] The blood collection on day 14 was performed after 6 h fasting. On day 15, mice were sacrificed using carbon dioxide, and tissue samples were collected that were immediately frozen in liquid nitrogen. Applied humane endpoints were a total body weight loss of >20% in comparison to the day of LPS treatment or reaching an arthritis score of 45.
IL-6 concentrations were determined by ELISA in the serum collected at days 10 and 15, using the IL-6 mouse ELISA kit (Invitrogen), following the manufacturer's protocol. The insulin concentration was determined in serum collected at day 14, using the Ultra-sensitive mouse insulin ELISA kit (Crystal Chem), following the manufacturer's protocol. Corticosterone concentrations were determined in serum collected at day 15, using the Corticosterone HS (high sensitivity) enzyme immunoassay kit (Immunodiagnostic Systems), following the manufacturer's protocol. Expression levels of various GR target genes were determined by qPCR in the tissue samples (homogenized in TRIzol Reagent (ThermoFisher)) collected at day 15.

[6] = system: collagen antibody-induced arthritis (CAIA)
[7] = Pdn 12.5 or 25 mg/kg i.p. daily from day 7

Compound: CC(C)=CCCC(C)(O)[C@H]1CC[C@]2(C)[C@@H]1[C@H](O)C[C@@H]1[C@@]3(C)CC[C@H](O)C(C)(C)[C@@H]3CC[C@]12C (stereo in doubt) [PPD, Protopanaxadiol]
reduction in neutrophil migration in the presence of MZ31 [1]: did not affect the action of PPD
inhibition of neutrophil migration in Gr deficient larvae [1]: the inhibition of neutrophil migration was abolished
reduction in neutrophil migration in the presence of miglustat [1]: did not affect the action of PPD
wounding-induced increase in expression of il1b, il6 and mmp9 [2]: strongly suppressed
larval length (Larval body length): did decrease
tissue regeneration (length of regenerated tail fin) (regenerated tail fin): did decrease
transactivation activity of Gr (GFP signal in GRE:GFP reporter fish line) (Gr): did not cause an increase in the fluorescence intensity
expression of Gr target genes fkbp5, pck1 and nfkbiaa [3]: did not increase the expression
whole body glucose level [4]: did not affect the glucose level
whole body cortisol level [5]: did decrease the cortisol concentration

tissue regeneration with MZ31 (regenerated tail fin): GBA2-dependent
whole body glucose level [4]: did not show any effect on glucose
whole body cortisol level under wounding conditions [5]: minor effect
whole body cortisol level under wounding conditions with MZ31 [5]: GBA2-dependent
Compound: CC(C)=CCC[C@](C)(O[C@@H]1O[C@H](CO)[C@@H](O)[C@H](O)[C@H]1O)[C@H]1CC[C@]2(C)[C@@H]1[C@H](O)C[C@@H]1[C@@]3(C)CC[C@H](O[C@@H]4O[C@H](CO)[C@@H](O)[C@H](O)[C@H]4O)C(C)(C)[C@@H]3CC[C@]12C [F2]
reduction in neutrophil migration in the presence of MZ31 [1]: abolished
neutrophil migration in Gba2-deficient larvae [1]: did not affect the neutrophil migration
inhibition of neutrophil migration in Gr deficient larvae [1]: the inhibition of neutrophil migration was abolished
reduction in neutrophil migration in the presence of miglustat [1]: abolished
wounding-induced increase in expression of il1b, il6 and mmp9 [2]: strongly suppressed
tissue regeneration (length of regenerated tail fin) (regenerated tail fin): neither did they affect; also recorded: minor effect
transactivation activity of Gr (GFP signal in GRE:GFP reporter fish line) (Gr): did not cause an increase in the fluorescence intensity
whole body cortisol level [5]: neither did they affect the cortisol concentration

Compound: C[C@]12C=CC(=O)C=C1CC[C@@H]1[C@@H]2[C@@H](O)C[C@@]2(C)[C@H]1CC[C@]2(O)C(=O)CO [Pdn, prednisolone]
migration of neutrophils towards the wounded area ([1]; wild type larvae, 4 h after tail wounding): inhibited the neutrophil migration
expression of the pro-inflammatory genes il1b, il6 and il8 [2]: these effects were similar to those observed upon Pdn and GPdn treatment
serum IL-6 level compared to the vehicle group (IL-6; day 10, all treatment groups): significant reduction of the IL-6 level
serum IL-6 level (IL-6; day 15, all groups except 12.5 mg/kg GbPdn): undetectable
arthritis score at maximal reduction [6, 7]: approximately 0
day of maximal reduction of arthritis score [6, 7]: 11 days
arthritis scores after treatment initiation ([6]; all dose groups, daily i.p. from day 7): decreased rapidly after treatment initiation
whole body cortisol level [5]: significantly larger decrease

tissue regeneration with MZ31 (regenerated tail fin): GBA2-dependent
whole body glucose level [4]: did not show any effect on glucose
whole body cortisol level under wounding conditions [5]: minor effect
whole body cortisol level under wounding conditions with MZ31 [5]: GBA2-dependent
Compound: CC(C)=CCC[C@](C)(O[C@@H]1O[C@H](CO[C@@H]2O[C@H](CO)[C@@H](O)[C@H](O)[C@H]2O)[C@@H](O)[C@H](O)[C@H]1O)[C@H]1CC[C@]2(C)[C@@H]1[C@H](O)C[C@@H]1[C@@]3(C)CC[C@H](O[C@@H]4O[C@H](CO)[C@@H](O)[C@H](O)[C@H]4O[C@@H]4O[C@H](CO)[C@@H](O)[C@H](O)[C@H]4O)C(C)(C)[C@@H]3CC[C@]12C [Rb1]
reduction in neutrophil migration in the presence of MZ31 [1]: abolished
neutrophil migration in Gba2-deficient larvae [1]: did not affect the neutrophil migration
inhibition of neutrophil migration in Gr deficient larvae [1]: the inhibition of neutrophil migration was abolished
reduction in neutrophil migration in the presence of miglustat [1]: abolished
wounding-induced increase in expression of il1b, il6 and mmp9 [2]: strongly suppressed
tissue regeneration (length of regenerated tail fin) (regenerated tail fin): neither did they affect; also recorded: minor effect
transactivation activity of Gr (GFP signal in GRE:GFP reporter fish line) (Gr): did not cause an increase in the fluorescence intensity
whole body cortisol level [5]: neither did they affect the cortisol concentration

Compound: C[C@@H]1C[C@H]2[C@@H]3CCC4=CC(=O)C=C[C@]4(C)[C@@]3(F)[C@@H](O)C[C@]2(C)[C@@]1(O)C(=O)CO [Dex, dexamethasone]
larval length (Larval body length): decreased
whole body glucose level [4]: increased the glucose concentration
whole body cortisol level [5]: decreased the cortisol level; also recorded: significantly larger decrease
